In BindingDB's records for doi:10.1080/14756360310001650200 (Universit&Eacute, 2004):

Target: T1, Chymase (Homo sapiens, UniProt P23946)
T1 sequence (P23946 whole entry): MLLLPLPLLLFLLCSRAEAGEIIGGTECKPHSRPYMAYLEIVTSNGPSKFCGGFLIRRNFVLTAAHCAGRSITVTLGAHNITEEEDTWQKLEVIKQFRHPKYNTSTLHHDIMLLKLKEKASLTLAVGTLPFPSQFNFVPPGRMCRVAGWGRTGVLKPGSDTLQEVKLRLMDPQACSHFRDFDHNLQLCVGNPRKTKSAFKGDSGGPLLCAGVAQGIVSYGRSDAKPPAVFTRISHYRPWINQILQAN
Assay: Enzyme Inhibition Assay
Description: Enzyme inhibitory activity using recombinant human chymase.

Point of comparison: `O=c1n2c(c(O)n1S(=O)(=O)c1ccc3ccccc3c1)Cc1ccccc1C2` [Tetrahydroisoquinoline hydantoin derivative, 5d], IC50 17.5 µM. Against it:
- O=c1n2c(c(O)n1S(=O)(=O)c1ccc(Cl)c(Cl)c1)Cc1ccccc1-2 [Tetrahydroisoquinoline hydantoin derivative, 3c] — 21-fold higher, 374 µM
- Cc1ccc(S(=O)(=O)n2c(O)c3n(c2=O)Cc2ccccc2C3)cc1C [Tetrahydroisoquinoline hydantoin derivative, 5b] — 2.4-fold higher, 42.8 µM
- Cc1ccc(S(=O)(=O)N2C(=O)[C@@H]3Cc4ccccc4CN3C2=O)cc1 [Tetrahydroisoquinoline hydantoin derivative, 5a] — 2.8-fold higher, 49 µM
- Cc1ccc(S(=O)(=O)n2c(O)c3n(c2=O)-c2ccccc2C3)cc1 [Tetrahydroisoquinoline hydantoin derivative, 3a] — 9.8-fold higher, 172 µM
- O=c1n2c(c(O)n1S(=O)(=O)c1ccc3ccccc3c1)Cc1ccccc1-2 [Tetrahydroisoquinoline hydantoin derivative, 3d] — 5-fold higher, 86.8 µM
- Cc1ccc(S(=O)(=O)n2c(O)c3n(c2=O)-c2ccccc2C3)cc1C [Tetrahydroisoquinoline hydantoin derivative, 3b] — 12-fold higher, 206 µM
